Like-named read-outs stand apart in the source and are kept apart here. Marks after values point to notes of the source that are not given here.
What was measured:
[1] = tested on: p53 gene expression in lung cancer cell lines; experiment: qRT-PCR gene expression, p53; type: cell-based, human; details: treated lung cancer cell line vs negative control; order 7g, Dox, 7a
Procedure: (§1) The RNeasy Mini Kit (Qiagen, Hilden, Germany), augmented with a DNaseI (Qiagen) digestion step, was employed to extract total RNA from lung cancer cell lines following the manufacturer's procedure. The isolated total RNA was treated with one unit of RQ1 RNAse-free DNAse (Invitrogen, Germany) to eliminate DNA remnants, re-suspended in DEPC-treated water, and quantified photometrically at 260 nm. The purity of total RNA was evaluated using the 260/280 nm ratio, which ranged from 1.8 to 2.1.[27]
(§2) Furthermore, integrity was confirmed using ethidium bromide-stained examination of 28S and 18S bands via formaldehyde-containing agarose gel electrophoresis. Aliquots were utilized immediately for reverse transcription (RT); otherwise, they were preserved at −80 °C.
(§3) The poly(A) + RNA extracted from the lung cancer cell lines was reverse transcribed into the cDNA in a total amount of 20 μl utilizing the Revert Aid TM First Strand cDNA Synthesis Kit (Fermentas, Germany). A total of 5 μg of RNA was utilized with a master mix. The master mix comprised 50 mM MgCl2, 10× RT buffer (50 mM KCl; 10 mM Tris–HCl; pH 8.3), 10 mM of each dNTP, 50 μM oligo-dT primer, 20 IU ribonuclease inhibitor (50 kDa recombinant enzyme to suppress RNase activity), and 50 IU MuLV reverse transcriptase. Each sample mixture was centrifuged for 30 seconds at 1000 g and thereafter transferred to the thermocycler. The RT reaction was conducted at 25 °C for 10 minutes, subsequently at 42 °C for 1 hour, and concluded with a denaturation phase at 99 °C for 5 minutes. Subsequently, the reaction tubes containing RT-prepared samples were rapidly chilled in an ice chamber prior to cDNA amplification via the quantitative real-time polymerase chain reaction (qRT-PCR).
(§4) The cDNA copy number of lung cancer cell lines was determined using the StepOne™ Real-Time PCR System from Applied Biosystems (Thermo Fisher Scientific, Waltham, MA, USA). […]
(§5) The reaction protocol was divided into three stages. […] The relative quantification of the target gene to the reference gene was assessed using the 2^−ΔΔCT method.[29–31]

[2] = tested on: BCL-2 gene expression in lung cancer cell lines; experiment: qRT-PCR gene expression, BCL-2; type: cell-based, human; details: treated lung cancer cell lines vs negative control; descending order 7g, Dox, 7a
Procedure: as §1, §2, §3, §4, §5

[3] = tested on: PACA2 (pancreatic cancer cell line); experiment: MTT cytotoxicity assay, PACA2; type: cell-based; details: Homo sapiens; for cytotoxicity at 100 µg/mL: read-out: (%) Mortality PACA2
Procedure: (§6) Using specific human cancer cell lines, the anti-proliferative effectiveness of compounds 7a–j was evaluated in an in vitro assay. The anti-cancer activity of these compounds (7a–j) on various cancer cell lines, including PC3 (Prostate cell line), A549 (Lung carcinoma), PACA2 (Pancreatic cancer cell line) and BJ1 (normal skin fibroblast), was investigated in this study using the 3-(4,5-dimethylthiazol-2-yl)-2,5-diphenyltetrazolium bromide (MTT) test. Doxorubicin (Dox) was the standard medication used as a positive control.
(§7) In the initial screening trial, a single dosage concentration of 100 μg ml^−1 was applied for 48 hours. The cytotoxicity of the treated cells was determined by calculating the cell death percentage (% mortality) as a percentage of untreated cells (Table 2).
(§8) All incubations were performed at 37 °C in a 5% CO2 incubator with a 95% humidified environment (Sheldon, TC2323; Cornelius, OR, USA). 96-well micro titer polypropylene plates were seeded with cells at a density of 10^4 cells per well in complete DMEM media, and the cells were allowed to adhere for 24 hours. After the media was aspirated, the tested compounds were added to the cells in a single dose of 100 μg ml^−1 in DMSO. Each well received 40 μl of MTT salt (2.5 g ml^−1) following a 48 hour incubation period. 200 μl of 10% sodium dodecyl sulfate (SDS) was added to each well after the reaction ended, and any formazan crystals that could have been produced were dissolved by two hours of incubator heating to 37 °C. The amount of formazan product was measured at 595 nm using a microplate reader (Bio-Rad Laboratories, model 3350, California, USA) with a reference wavelength of 690 nm, serving as a backdrop. Rather than the drugs under investigation, the medium was applied to the untreated cells (negative control). The examined compounds were dissolved in dimethylsulfoxide (DMSO), and the final concentration in the cells was less than 0.2%. For each compound and the control, the solvent concentration was the same.

PC3 (prostate cell line) = experiment: MTT cytotoxicity assay, PC3; type: cell-based; details: Homo sapiens, read-out: (%) Mortality PC3
Procedure: as §6, §7, §8

A549 (lung carcinoma) = experiment: MTT cytotoxicity assay, A549; type: cell-based; details: Homo sapiens; for cytotoxicity at 100 µg/mL: read-out: (%) Mortality A549; for IC50: 48 hour incubation
Procedure: as §6, §7, §8

[4] = tested on: lung cancer cell lines (A549); experiment: DNA damage evaluation using the comet assay; type: cell-based, human; details: for DNA damaged cells% (mean ± SEM): A549, comet assay, negative control 11.59 ± 0.65; for Class 0 cells (no tail) / Class 1 cells (tail length < diameter of the nucleus) / Class 2 cells (tail length between 1× and 2× the diameter of the nucleus) / Class 3 cells (tail length > 2× the diameter of the nucleus) / No. of cells: Comets: A549, of 440 cells analyzed
Procedure: The determination of DNA damage via the comet assay was conducted using lung cancer cell lines, following the methodology established by Olive et al. (1990).[32] Following trypsin treatment to generate a single-cell suspension, approximately 1.5 × 10^4 cells were embedded in 0.75% low-gelling-temperature agarose and swiftly pipetted onto a pre-coated microscope slide.
The samples underwent lysis for 4 hours at 50 °C in a solution containing 0.5% SDS and 30 mM EDTA at pH 8.0. Following an overnight rinse at room temperature in a Tris/borate/EDTA buffer, pH 8.0, samples underwent electrophoresis for 25 minutes at 0.6 V cm^−1 and were subsequently stained with propidium iodide. The slides were examined with a fluorescence microscope equipped with a CCD camera, and 150 individual comet images were analyzed from each sample for a tail moment, DNA content, and percentage of DNA in the tail.
The non-overlapping cells were randomly selected and assigned a score on a scale of 0–3 based on the comet tail length migration and the relative proportion of DNA in the nucleus. Class 0 indicates no detectable DNA damage and no tail; class 1 indicates a tail length less than the diameter of the nucleus; class 2 indicates a tail length between 1× and 2× the nuclear diameter; and class 3 indicates a tail longer than 2× the diameter of the nucleus (Collins et al., 1997).[33]

[5] = tested on: BAX gene expression in lung cancer cell lines; experiment: qRT-PCR gene expression, BAX; type: cell-based, human; details: treated lung cancer cell line vs negative control; order 7g, Dox, 7a
Procedure: as §1, §2, §3, §4, §5

[6] = PaCa-2, 100 μg ml^−1, 48 hours, MTT
[7] = A549, 100 μg ml^−1, 48 hours, MTT

SMILES	p53 (pro-apoptotic gene) expression level [1]	BCL-2 (anti-apoptotic gene) expression level [2]	cytotoxicity at 100 µg/mL [3, 6]	cytotoxicity at 100 µg/mL (PC3 (prostate cell line); 100 μg ml^−1, 48 hours, MTT)	cytotoxicity at 100 µg/mL (A549 (lung carcinoma); [7])	IC50 (A549 (lung carcinoma); A549, MTT)	DNA damaged cells% (mean ± SEM) [4]	Class 0 cells (no tail) [4]	Class 1 cells (tail length < diameter of the nucleus) [4]	Class 2 cells (tail length between 1× and 2× the diameter of the nucleus) [4]	Class 3 cells (tail length > 2× the diameter of the nucleus) [4]	No. of cells: Comets [4]	BAX (pro-apoptotic gene) expression level [5]	cytotoxicity at 100 µg/mL ([3]; PaCa-2, 48 h)	IC50 ([3]; PaCa-2, MTT, 48 hour incubation)	cytotoxicity at 100 µg/mL (PC3 (prostate cell line); 48 h)	cytotoxicity at 100 µg/mL (A549 (lung carcinoma); A549, 48 h)
COc1ccc(-c2nn(-c3ccccc3)c3nc(=O)c(C)nn23)cc1 [Compound 7g, 3-(4-Methoxyphenyl)-6-methyl-1-phenyl-[1,2,4]triazolo[4,3-b][1,2,4]triazin-7(1H)-one]	elevated	diminished	13.4 ± 1.15%	14.6 ± 0.92%	82.3 ± 0.82%	40.1 µM	21.14 ± 0.85^b %	347	32	38	23	93	elevated				
Cc1nn2c(C)nn(-c3ccc([N+](=O)[O-])cc3)c2nc1=O [Compound 7a, 3,6-Dimethyl-1-(4-nitrophenyl)-[1,2,4]triazolo[4,3-b][1,2,4]triazin-7(1H)-one]	elevated	diminished	20.4 ± 0.11%	28.2 ± 0.25%	80.4 ± 0.66%	36.6 µM	28.18 ± 1.25^a %	316	37	45	42	124	elevated				
COc1cccc2c1C(=O)c1c(O)c3c(c(O)c1C2=O)C[C@@](O)(C(=O)CO)C[C@@H]3O[C@H]1C[C@H](N)[C@H](O)[C@H](C)O1 [Dox, Doxorubicin, reference compound]	elevated	diminished				43.8 µM	23.86 ± 1.11^b %	335	34	41	30	105	elevated	100%	52.1 µM	100%	100%
